Measured values reported in ChEMBL document CHEMBL1909046, “DrugMatrix in vitro pharmacology data”.

Experiments:
[1] = target: T1, Alpha-2C adrenergic receptor (Homo sapiens, UniProt P18825); assay: DRUGMATRIX: Adrenergic Alpha-2C radioligand binding (ligand: [3H] MK-912); format: cell membranes, Sf9, Membrane; details: sf9
T1 sequence (P18825 whole entry): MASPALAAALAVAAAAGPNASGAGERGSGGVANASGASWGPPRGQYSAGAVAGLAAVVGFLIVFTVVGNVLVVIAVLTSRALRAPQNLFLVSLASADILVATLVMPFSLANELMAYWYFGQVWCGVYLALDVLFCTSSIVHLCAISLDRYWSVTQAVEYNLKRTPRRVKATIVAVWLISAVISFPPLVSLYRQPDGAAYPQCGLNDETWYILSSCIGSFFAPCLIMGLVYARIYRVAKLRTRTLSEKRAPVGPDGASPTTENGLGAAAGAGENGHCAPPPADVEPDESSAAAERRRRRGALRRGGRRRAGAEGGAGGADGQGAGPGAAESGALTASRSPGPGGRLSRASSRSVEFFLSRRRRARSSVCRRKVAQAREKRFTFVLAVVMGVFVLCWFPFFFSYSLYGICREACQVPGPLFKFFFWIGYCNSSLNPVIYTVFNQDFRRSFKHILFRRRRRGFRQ

[2] = target: Voltage-gated inwardly rectifying potassium channel KCNH2 (Homo sapiens, UniProt Q12809); details: hek293; note: in other assays of this panel Not Active means under 50% inhibition at 10 µM
Voltage-gated inwardly rectifying potassium channel KCNH2, sequence (Q12809 whole entry): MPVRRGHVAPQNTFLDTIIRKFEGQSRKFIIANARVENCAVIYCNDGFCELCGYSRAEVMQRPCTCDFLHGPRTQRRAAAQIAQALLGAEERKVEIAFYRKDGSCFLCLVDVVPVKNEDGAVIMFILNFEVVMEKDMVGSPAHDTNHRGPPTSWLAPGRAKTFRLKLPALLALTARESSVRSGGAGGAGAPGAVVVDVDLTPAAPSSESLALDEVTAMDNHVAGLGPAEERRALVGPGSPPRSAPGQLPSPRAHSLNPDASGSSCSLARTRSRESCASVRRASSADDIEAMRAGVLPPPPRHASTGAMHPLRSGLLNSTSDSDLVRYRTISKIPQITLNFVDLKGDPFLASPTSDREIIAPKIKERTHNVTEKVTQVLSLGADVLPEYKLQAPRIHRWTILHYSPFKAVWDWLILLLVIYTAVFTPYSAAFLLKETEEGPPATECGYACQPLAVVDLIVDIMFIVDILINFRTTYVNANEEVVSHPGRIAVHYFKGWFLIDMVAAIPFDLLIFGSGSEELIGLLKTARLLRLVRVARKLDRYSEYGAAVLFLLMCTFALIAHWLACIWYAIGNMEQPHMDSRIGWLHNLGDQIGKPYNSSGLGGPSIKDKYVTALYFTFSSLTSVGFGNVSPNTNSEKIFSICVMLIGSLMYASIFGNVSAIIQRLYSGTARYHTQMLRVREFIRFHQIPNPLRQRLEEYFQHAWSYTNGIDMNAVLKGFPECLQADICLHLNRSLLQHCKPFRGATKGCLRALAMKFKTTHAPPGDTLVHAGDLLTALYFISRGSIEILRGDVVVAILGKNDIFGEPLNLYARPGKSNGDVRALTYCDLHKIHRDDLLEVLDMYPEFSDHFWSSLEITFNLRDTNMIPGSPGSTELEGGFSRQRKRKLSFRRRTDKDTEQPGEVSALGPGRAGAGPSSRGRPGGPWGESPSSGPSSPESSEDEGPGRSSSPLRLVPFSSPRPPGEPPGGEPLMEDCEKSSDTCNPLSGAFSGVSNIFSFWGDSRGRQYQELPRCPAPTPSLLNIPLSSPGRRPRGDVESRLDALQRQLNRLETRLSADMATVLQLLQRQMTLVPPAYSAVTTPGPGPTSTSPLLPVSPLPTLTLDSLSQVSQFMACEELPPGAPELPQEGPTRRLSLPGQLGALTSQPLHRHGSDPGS

[3] = target: C-C chemokine receptor type 2 (Homo sapiens, UniProt P41597); format: cell membranes, CHO-K1, Membrane; details: cho-k1; note: in other assays of this panel Not Active means under 50% inhibition at 10 µM
C-C chemokine receptor type 2, sequence (P41597 whole entry): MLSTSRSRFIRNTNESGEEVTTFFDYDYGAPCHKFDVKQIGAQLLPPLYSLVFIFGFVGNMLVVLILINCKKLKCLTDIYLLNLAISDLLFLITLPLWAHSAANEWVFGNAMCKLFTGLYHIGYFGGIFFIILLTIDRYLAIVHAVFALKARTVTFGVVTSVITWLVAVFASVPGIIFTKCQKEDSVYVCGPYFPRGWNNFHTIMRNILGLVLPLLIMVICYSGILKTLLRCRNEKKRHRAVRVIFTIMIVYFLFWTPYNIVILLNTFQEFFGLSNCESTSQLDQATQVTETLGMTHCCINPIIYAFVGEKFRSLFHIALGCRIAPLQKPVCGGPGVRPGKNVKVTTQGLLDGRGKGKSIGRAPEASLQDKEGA

[4] = DRUGMATRIX: Calcium Channel Type L, Benzothiazepine radioligand binding (ligand: [3H] Diltiazem); format: cell membranes, Rattus norvegicus, Wistar, Brain, Membrane; details: Not Active = under 50% inhibition at 10 µM
[5] = target: cGMP-specific 3',5'-cyclic phosphodiesterase (Homo sapiens, UniProt O76074); assay: DRUGMATRIX: Phosphodiesterase PDE5 enzyme inhibition (substrate: [3H]cGMP + cGMP); format: tissue-based, Platelet; details: platelet; Not Active = under 50% inhibition at 10 µM
[6] = target: T2, 5-hydroxytryptamine receptor 1A (Rattus norvegicus, UniProt P19327); format: cell membranes, CHO-K1, Membrane; details: cho-k1; note: in other assays of this panel Not Active means under 50% inhibition at 10 µM
T2 sequence (P19327 whole entry): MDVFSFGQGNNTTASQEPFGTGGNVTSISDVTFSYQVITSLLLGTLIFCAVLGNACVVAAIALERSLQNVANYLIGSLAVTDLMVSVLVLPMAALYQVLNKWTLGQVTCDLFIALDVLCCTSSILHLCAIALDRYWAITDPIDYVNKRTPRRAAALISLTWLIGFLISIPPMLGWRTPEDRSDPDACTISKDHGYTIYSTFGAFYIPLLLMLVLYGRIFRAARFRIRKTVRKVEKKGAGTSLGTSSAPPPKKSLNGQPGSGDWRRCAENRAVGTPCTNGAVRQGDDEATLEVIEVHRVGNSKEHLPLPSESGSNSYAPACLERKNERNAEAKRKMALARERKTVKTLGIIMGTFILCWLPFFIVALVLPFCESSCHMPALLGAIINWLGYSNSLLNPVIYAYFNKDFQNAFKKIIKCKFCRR

Acetylcholinesterase = Acetylcholinesterase (Homo sapiens, UniProt P22303); assay: DRUGMATRIX: Acetylcholinesterase enzyme inhibition (substrate: acetylthiocholine); format: cell-based, HEK293; details: hek293; Not Active = under 50% inhibition at 10 µM
Acetylcholinesterase, sequence (P22303 whole entry): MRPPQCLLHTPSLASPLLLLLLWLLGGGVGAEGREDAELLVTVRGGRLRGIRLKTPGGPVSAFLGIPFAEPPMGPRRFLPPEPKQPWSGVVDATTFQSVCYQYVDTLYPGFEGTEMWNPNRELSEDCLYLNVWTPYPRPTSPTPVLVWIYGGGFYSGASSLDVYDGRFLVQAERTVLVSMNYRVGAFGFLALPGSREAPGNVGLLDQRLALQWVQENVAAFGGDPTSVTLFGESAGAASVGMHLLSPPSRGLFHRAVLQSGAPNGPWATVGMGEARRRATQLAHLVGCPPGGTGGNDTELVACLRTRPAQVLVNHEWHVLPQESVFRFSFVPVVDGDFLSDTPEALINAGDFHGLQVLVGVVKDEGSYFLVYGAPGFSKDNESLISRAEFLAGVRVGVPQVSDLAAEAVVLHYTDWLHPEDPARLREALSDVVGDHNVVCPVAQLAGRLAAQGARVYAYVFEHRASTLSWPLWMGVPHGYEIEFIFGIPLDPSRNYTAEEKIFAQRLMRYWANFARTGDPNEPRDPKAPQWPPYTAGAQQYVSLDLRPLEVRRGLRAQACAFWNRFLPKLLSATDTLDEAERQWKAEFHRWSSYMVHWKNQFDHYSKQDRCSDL

[7] = DRUGMATRIX: GABAA, Chloride Channel, TBOB radioligand binding (ligand: [3H] TBOB); format: cell membranes, Rattus norvegicus, Wistar, Cerebral cortex, Membrane; details: Not Active = under 50% inhibition at 10 µM
[8] = DRUGMATRIX: beta-Lactamase enzyme inhibition (substrate: Nitrocefin); design: species or system Bacillus cereus; details: Not Active = under 50% inhibition at 10 µM
[9] = DRUGMATRIX: Serotonin (5-Hydroxytryptamine) 5-HT3 radioligand binding (ligand: [3H] GR-65630); format: cell membranes, Membrane; details: hek293; Not Active = under 50% inhibition at 10 µM
[10] = DRUGMATRIX: Calcium Channel Type L, Dihydropyridine radioligand binding (ligand: [3H] Nitrendipine); format: cell membranes, Rattus norvegicus, Wistar, Cerebral cortex, Membrane; details: Not Active = under 50% inhibition at 10 µM
Leukotriene C4 synthase = target: T3, Leukotriene C4 synthase (Cavia porcellus, UniProt A6XA80); assay: biochemical; format: tissue-based, Lung;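 note: enzyme inhibition assay of leukotriene C4 synthase, using LTA4 as the substrate; in other assays of this panel Not Active means under 50% inhibition at 10 µM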
T3 sequence (A6XA80 whole entry): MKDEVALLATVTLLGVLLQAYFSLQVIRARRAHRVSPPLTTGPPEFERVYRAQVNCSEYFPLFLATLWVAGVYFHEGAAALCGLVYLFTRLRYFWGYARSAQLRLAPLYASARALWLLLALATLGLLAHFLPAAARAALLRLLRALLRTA

[11] = DRUGMATRIX: Atrial Natriuretic Factor (ANF) radioligand binding (ligand: [125I] ANF (rat)); format: cell membranes, Cavia porcellus, Dunkin-Hartley, Adrenal gland, Membrane; details: Not Active = under 50% inhibition at 10 µM
Vasopressin V1a receptor = Vasopressin V1a receptor (Homo sapiens, UniProt P37288); format: cell membranes, Membrane; details: hek293; note: in other assays of this panel Not Active means under 50% inhibition at 10 µM
Vasopressin V1a receptor, sequence (P37288 whole entry): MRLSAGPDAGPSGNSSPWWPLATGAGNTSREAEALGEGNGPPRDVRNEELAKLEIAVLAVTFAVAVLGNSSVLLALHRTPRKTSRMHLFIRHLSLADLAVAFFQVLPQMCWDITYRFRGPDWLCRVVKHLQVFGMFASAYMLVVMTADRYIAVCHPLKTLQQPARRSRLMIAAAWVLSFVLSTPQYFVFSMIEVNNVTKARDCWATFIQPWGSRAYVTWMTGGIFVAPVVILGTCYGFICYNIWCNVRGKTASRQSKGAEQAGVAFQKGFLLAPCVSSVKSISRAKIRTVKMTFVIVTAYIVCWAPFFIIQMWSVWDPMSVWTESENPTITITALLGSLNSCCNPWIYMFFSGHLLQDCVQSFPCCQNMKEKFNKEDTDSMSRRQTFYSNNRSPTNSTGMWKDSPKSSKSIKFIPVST

Cytochrome P450 3A4 = Cytochrome P450 3A4 (Homo sapiens, UniProt P08684); details: bti-tn-5b1-4; note: in other assays of this panel Not Active means under 50% inhibition at 10 µM
Cytochrome P450 3A4, sequence (P08684 whole entry): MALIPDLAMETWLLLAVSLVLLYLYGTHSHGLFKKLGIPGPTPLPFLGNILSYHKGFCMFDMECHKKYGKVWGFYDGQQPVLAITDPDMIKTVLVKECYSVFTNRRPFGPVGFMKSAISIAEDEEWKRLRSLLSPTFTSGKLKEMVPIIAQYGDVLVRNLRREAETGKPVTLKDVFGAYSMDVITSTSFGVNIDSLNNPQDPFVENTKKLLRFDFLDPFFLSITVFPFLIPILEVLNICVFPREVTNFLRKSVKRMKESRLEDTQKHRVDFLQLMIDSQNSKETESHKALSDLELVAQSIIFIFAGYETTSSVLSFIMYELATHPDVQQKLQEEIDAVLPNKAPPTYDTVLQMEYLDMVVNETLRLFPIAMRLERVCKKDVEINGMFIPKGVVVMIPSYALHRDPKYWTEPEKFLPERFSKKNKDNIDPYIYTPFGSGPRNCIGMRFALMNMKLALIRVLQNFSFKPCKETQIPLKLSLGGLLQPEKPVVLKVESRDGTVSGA

[12] = target: T4, Alpha-1B adrenergic receptor (Rattus norvegicus, UniProt P15823); assay: DRUGMATRIX: Alpha-1B adrenergic receptor radioligand binding (ligand: prazosin); format: cell membranes, Wistar, Liver, Membrane; details: Not Active = under 50% inhibition at 10 µM
T4 sequence (P15823 whole entry): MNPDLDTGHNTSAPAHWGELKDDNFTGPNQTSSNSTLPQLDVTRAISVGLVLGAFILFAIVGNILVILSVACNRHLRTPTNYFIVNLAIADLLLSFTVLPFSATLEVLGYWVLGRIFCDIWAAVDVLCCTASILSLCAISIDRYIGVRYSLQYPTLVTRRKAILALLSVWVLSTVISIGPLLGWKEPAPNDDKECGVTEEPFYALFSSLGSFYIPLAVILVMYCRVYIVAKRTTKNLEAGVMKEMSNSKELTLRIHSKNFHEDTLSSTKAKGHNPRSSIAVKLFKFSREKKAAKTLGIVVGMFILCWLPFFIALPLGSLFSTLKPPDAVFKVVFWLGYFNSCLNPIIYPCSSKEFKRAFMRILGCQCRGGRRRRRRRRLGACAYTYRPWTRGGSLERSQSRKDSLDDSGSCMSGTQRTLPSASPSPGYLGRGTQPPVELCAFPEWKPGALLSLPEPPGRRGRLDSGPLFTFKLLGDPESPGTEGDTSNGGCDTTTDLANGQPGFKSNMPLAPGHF

O=C1CN=C(c2ccccc2)c2cc([N+](=O)[O-])ccc2N1 [NITRAZEPAM]
Not Active: IC50 [1] | IC50 [2] | Ki [2] | IC50 [3] | IC50 [4] | Ki [4] | IC50 [5] | IC50 [6] | IC50 (Acetylcholinesterase) | IC50 [7] | Ki [7] | IC50 [8] | Ki [8] | IC50 [9] | Ki [9] | IC50 [10] | Ki [10] | IC50 (Leukotriene C4 synthase) | IC50 [11] | Ki [11] | IC50 (Vasopressin V1a receptor) | IC50 (Cytochrome P450 3A4) | Ki (Cytochrome P450 3A4) | IC50 [12]

CISPLATIN
Not Active: IC50 [1] | Ki [1] | IC50 [2] | Ki [2] | IC50 [4] | Ki [4] | IC50 [5] | Ki [5] | IC50 [6] | Ki [6] | IC50 (Acetylcholinesterase) | Ki (Acetylcholinesterase) | IC50 [7] | Ki [7] | IC50 [8] | Ki [8] | IC50 [9] | Ki [9] | IC50 [10] | Ki [10] | IC50 (Leukotriene C4 synthase) | Ki (Leukotriene C4 synthase) | IC50 [11] | Ki [11] | IC50 (Vasopressin V1a receptor) | Ki (Vasopressin V1a receptor) | IC50 (Cytochrome P450 3A4) | Ki (Cytochrome P450 3A4) | IC50 [12] | Ki [12]
18.1 µM: IC50 ([3]; read-out: IC50)
7.01 µM: Ki ([3]; read-out: Ki)

GOLD SODIUM THIOMALATE
Not Active: IC50 [1] | Ki [1] | IC50 [2] | Ki [2] | IC50 [3] | Ki [3] | IC50 [4] | Ki [4] | IC50 [5] | Ki [5] | IC50 [6] | Ki [6] | IC50 (Acetylcholinesterase) | Ki (Acetylcholinesterase) | IC50 [7] | Ki [7] | IC50 [8] | Ki [8] | IC50 [9] | Ki [9] | IC50 [10] | Ki [10] | IC50 (Leukotriene C4 synthase) | Ki (Leukotriene C4 synthase) | IC50 [11] | Ki [11] | IC50 (Vasopressin V1a receptor) | Ki (Vasopressin V1a receptor) | IC50 (Cytochrome P450 3A4) | Ki (Cytochrome P450 3A4) | IC50 [12] | Ki [12]

CCc1cccc2c3c([nH]c12)C(CC)(CC(=O)O)OCC3 (stereo not drawn) [ETODOLAC]
Not Active: IC50 [1] | IC50 [2] | Ki [2] | IC50 [3] | IC50 [4] | Ki [4] | IC50 [5] | IC50 [6] | IC50 (Acetylcholinesterase) | IC50 [7] | Ki [7] | IC50 [8] | Ki [8] | IC50 [9] | Ki [9] | IC50 [10] | Ki [10] | IC50 (Leukotriene C4 synthase) | IC50 [11] | Ki [11] | IC50 (Vasopressin V1a receptor) | IC50 (Cytochrome P450 3A4) | Ki (Cytochrome P450 3A4) | IC50 [12]

CN(C)[C@@H]1C(O)=C(C(N)=O)C(=O)[C@@]2(O)C(O)=C3C(=O)c4c(O)cccc4[C@@](C)(O)[C@H]3[C@H](O)[C@@H]12 [OXYTETRACYCLINE]
Not Active: IC50 [1] | IC50 [2] | Ki [2] | IC50 [3] | IC50 [4] | Ki [4] | IC50 [5] | IC50 [6] | IC50 (Acetylcholinesterase) | IC50 [7] | Ki [7] | IC50 [8] | Ki [8] | IC50 [9] | Ki [9] | IC50 [10] | Ki [10] | IC50 (Leukotriene C4 synthase) | IC50 [11] | Ki [11] | IC50 (Vasopressin V1a receptor) | IC50 (Cytochrome P450 3A4) | Ki (Cytochrome P450 3A4) | IC50 [12]

OXALIPLATIN
Not Active: IC50 [1] | Ki [1] | IC50 [2] | Ki [2] | IC50 [3] | Ki [3] | IC50 [4] | Ki [4] | IC50 [5] | Ki [5] | IC50 [6] | Ki [6] | IC50 (Acetylcholinesterase) | Ki (Acetylcholinesterase) | IC50 [7] | Ki [7] | IC50 [8] | Ki [8] | IC50 [9] | Ki [9] | IC50 [10] | Ki [10] | IC50 (Leukotriene C4 synthase) | Ki (Leukotriene C4 synthase) | IC50 [11] | Ki [11] | IC50 (Vasopressin V1a receptor) | Ki (Vasopressin V1a receptor) | IC50 (Cytochrome P450 3A4) | Ki (Cytochrome P450 3A4) | IC50 [12] | Ki [12]
